Here are results for 13 molecules from patent publication EP2809669B1, “FUSED PYRROLEDICARBOXAMIDES AND THEIR USE AS PHARMACEUTICALS” (SANOFI, priority 2012, dated 2013).

Molecules are shown by their SMILES. Read-outs that look alike come from different tables or passages of the source.

For orientation: IC50 means the midpoint of a concentration-inhibition curve. One may read the inhibition in vivo as how much of the control response was suppressed. A higher inhibition in vivo goes with a response far below the control.

One series has as its target T1, hERG channel (Homo sapiens, UniProt Q12809).
T1 construct: expressed in transfected cells
Put plainly: Determination of the effect on the hERG channel in CHO cells (whole-cell patch clamp). The class given is cell-based. The note with it: CHO cells stably expressing hERG, room temperature, read-out: IC50 value [µM] for hERG inhibition. The protocol: Determination of the effect on the hERG channel in CHO cells
An inhibition of the hERG (human Ether-a-go-go-Related Gene) potassium channel is unwanted because it can lead to dangerous arrhythmias. The effect of compounds of the formula I on the cloned human cardiac hERG channel was evaluated in an in vitro model using a whole-cell patch-clamping technique. CHO (Chinese hamster ovary) cells stably expressing hERG, the potassium channel underlying IKr currents in human hearts, were grown in HAM's F-12 media supplemented with 10 % fetal bovine serum, 1 x penicillin/streptomycin and 500 µg/ml G418 (Invitrogen, Carlsbad, CA, USA) in an atmosphere of 95 % air and 5 % carbon dioxide. Cells used for patch-clamping were seeded on glass or plastic coverslips 12 to 36 hours before use. hERG channel currents were recorded at room temperature using the whole-cell configuration of the patch clamp technique with an Axopatch 200B amplifier (Axon Instruments, Foster City, CA, USA). Briefly, electrodes (3 to 6 MΩ resistance) were fashioned from TW150F glass capillary tubes (World Precision Instruments, Sarasota, FL, USA) and filled with pipette solution (containing 120 mM potassium aspartate, 20 mM potassium chloride, 4 mM adenosine triphosphate disodium salt, 5 mM HEPES, 1 mM magnesium chloride; pH adjusted to 7.2 with potassium hydroxide). hERG currents were initiated by a positive voltage pulse (20 mV) followed by a negative pulse (-40 mV) and were recorded for off-line analyses. Once hERG current from a cell perfused with external solution (containing 130 mM sodium chloride, 5 mM potassium chloride, 2.8 mM sodium acetate, 1 mM magnesium chloride, 10 mM HEPES, 10 mM glucose, 1 mM calcium chloride; pH adjusted to 7.4 with sodium hydroxide) without the test compound, i.e. control solution, was stabilized, the cell was perfused with external solution containing the test compound at specific concentrations. For each concentration from each cell, peak amplitude of the steady-state hERG tail current at -40 mV was measured in picoAmpere (pA). The peak amplitude in pA for each concentration (up to a maximum concentration of 10 µM) was compared with that for the control solution from the same cell and expressed as percent value of the control. From the percent values at multiple concentrations, IC50 values for inhibition of hERG can be determined.
In general terms: Block of hERG is tested as a sign of cardiac risk.

Series [1] concerns atrium of the anesthetized pig. Put plainly: Investigation of the refractory period and the left-atrial vulnerability in the anesthetized pig. Format: in vivo. Particulars: Sus scrofa, iv; for inhibition in vivo at 0.3 mg/kg / change in vivo at 0.3 mg/kg: 0.3 mg/kg i.v. As for the experimental part:
Investigation of the refractory period and the left-atrial vulnerability in the pig
The compounds were tested for prolongation of the refractory period and antiarrhythmic activity on the atrium of the anesthetized pig as described in Knobloch K. et al., Naunyn-Schmiedeberg's Arch. Pharmacol. 2002, 366, 482-487. Here the anti-arrhythmic action relates to the inhibition of the occurrence of episodes of atrial arrhythmias which are induced by a prematurely placed extra-stimulus (S2) in the left atrium (= left-atrial vulnerability). The prolongation of the refractory period (refractoriness) is expressed as the increase in percent of the value of the refractory period 15 min after the end of administration of the test compound vs. the basal value before administration. Mean values of the prolongation of the refractory period are shown from three rates (150/min, 200/min and 250/min). The values for the inhibition of left atrial vulnerability (inhibition of episodes of arrhythmias) in percent refer to three measurements (three time points) before administration of the test compound vs. at least three measurements during the first hour after administration.
In Table 16, the action of compounds of the formula I from the examples above on the refractory period of the left atrium and their antiarrhythmic activity in the anesthetized pig after intravenous (i.v.) administration of the described dose is shown.

A further series concerns upper airway. The experiment in a line: Effect on upper airway collapsibility in the anesthetized pig (negative pressure challenge). The note with it: negative pressure -150 mbar. Format: in vivo. From the text:
Effect on upper airway collapsibility in the pig Pharmacological efficacy against obstructive apneas was investigated in chloralose-urethane anesthetized pigs (weight range 20 to 35 kg), a large-animal model for obstructive apneas. Negative pressure generated by a negative pressure device was applied with a cannula to the upper part of the trachea for at least three breaths so that the upper airway was exposed to the negative pressure generated by the device. This caused an upper airway collapse as in an obstructive apnea in control animals treated with vehicle only, and in animals of the treatment group before the test compound was administered (baseline situation). Different levels of negative pressure were used to cause a collapse of the upper airway (-50 mbar, -100 mbar and -150 mbar). These negative pressure challenges were repeated several times before vehicle or test compound was given, and at regular intervals after administration of vehicle or test compound. Whether the upper airway was collapsed or open, was judged by airflow measurement and by the tracheal pressure in the cannula inserted into the upper trachea. In case the upper airway was collapsed by the negative pressure, airflow to the negative pressure device was close to zero. As a second parameter tracheal pressure approached the negative pressure generated by the device during upper airway collapse. Test compounds were administered by intravenous bolus injection. After administration of an effective test compound the upper airway was open during the negative pressure challenges, i.e. not collapsed, as indicated by airflow to the negative pressure device and the fact that tracheal pressure now approached atmospheric pressure in the inspiratory phase where upper airway muscles are activated. In vehicle-treated controls upper airway collapse occurred at every negative pressure challenge at -50 mbar, -100 mbar and -150 mbar. In Table 17, the time after administration of compounds of the formula I from the examples above is shown during which no upper airway collapse occurred (time of inhibition of collapsibility) at a negative pressure of -150 mbar. […]

[2] abbreviates: infusion over 1 h, first hour after administration vs. before.
The mark [3] stands for this setting: 0.25 h, infusion over 1 h, 15 min after end of administration vs. basal value, mean of three rates (150/min, 200/min, 250/min), read-out: % Prolongation of left atrial refractory period.
Where [4] appears, read: 0.25 h, bolus injection, 15 min after end of administration vs. basal value, mean of three rates (150/min, 200/min, 250/min), read-out: % Prolongation of left atrial refractory period.
Where [5] appears, read: 1 h, bolus injection, first hour after administration vs. before.
Setting [6] is: 100 µg/kg intravenous bolus injection.

T1 sequence (Q12809 whole entry): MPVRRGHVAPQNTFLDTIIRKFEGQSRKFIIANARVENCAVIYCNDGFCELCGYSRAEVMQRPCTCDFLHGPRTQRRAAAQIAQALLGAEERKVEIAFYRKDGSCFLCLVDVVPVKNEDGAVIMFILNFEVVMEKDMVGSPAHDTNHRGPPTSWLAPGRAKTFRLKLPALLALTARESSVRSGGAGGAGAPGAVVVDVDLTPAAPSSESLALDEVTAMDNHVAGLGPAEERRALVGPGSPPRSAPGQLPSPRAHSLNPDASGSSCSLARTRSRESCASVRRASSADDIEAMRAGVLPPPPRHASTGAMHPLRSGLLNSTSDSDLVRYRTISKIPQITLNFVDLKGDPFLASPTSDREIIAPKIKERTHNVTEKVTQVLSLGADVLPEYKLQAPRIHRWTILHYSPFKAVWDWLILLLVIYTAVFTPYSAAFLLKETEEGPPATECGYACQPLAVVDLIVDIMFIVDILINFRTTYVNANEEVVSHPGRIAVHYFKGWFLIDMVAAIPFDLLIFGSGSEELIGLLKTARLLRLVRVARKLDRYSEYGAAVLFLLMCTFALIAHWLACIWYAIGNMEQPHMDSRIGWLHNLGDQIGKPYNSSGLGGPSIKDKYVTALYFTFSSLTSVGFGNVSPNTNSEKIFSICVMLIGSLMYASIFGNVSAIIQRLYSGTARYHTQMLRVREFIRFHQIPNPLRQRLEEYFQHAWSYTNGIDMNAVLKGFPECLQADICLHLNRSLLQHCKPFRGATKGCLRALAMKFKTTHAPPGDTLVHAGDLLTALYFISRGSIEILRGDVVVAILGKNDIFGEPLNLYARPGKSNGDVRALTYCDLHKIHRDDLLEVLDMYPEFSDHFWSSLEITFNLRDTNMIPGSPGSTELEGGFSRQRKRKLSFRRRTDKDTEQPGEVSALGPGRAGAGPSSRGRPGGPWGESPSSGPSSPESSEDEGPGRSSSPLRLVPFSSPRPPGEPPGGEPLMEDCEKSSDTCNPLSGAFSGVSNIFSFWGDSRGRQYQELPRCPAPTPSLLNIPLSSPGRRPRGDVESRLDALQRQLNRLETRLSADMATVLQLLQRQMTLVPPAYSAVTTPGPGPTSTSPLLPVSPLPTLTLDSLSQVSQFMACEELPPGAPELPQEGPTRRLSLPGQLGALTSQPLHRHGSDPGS

`CC[C@@H](NC(=O)c1cc(C(=O)N2CCC[C@@H]2C)n2c1COCC2)c1ccccc1` [16a, 6-((S)-2-Methyl-pyrrolidine-1-carbonyl)-3,4-dihydro-1H-pyrrolo[2,1-c][1,4]oxazine-8-carboxylic acid ((R)-1-phenyl-propyl)-amide]: the IC50 on hERG channel was more than 10 µM. The same molecule registered an inhibition in vivo at 0.3 mg/kg in series [1] (setting [2]) of 91%. The change in vivo at 0.3 mg/kg in series [1] (setting [3]) turned out to be 40%.
For `CC[C@@H](NC(=O)c1cc(C(=O)N2CCC[C@@H]2C)n2c1COCC2)c1cnc(OC)c(Cl)c1` [16b, 6-((S)-2-Methyl-pyrrolidine-1-carbonyl)-3,4-dihydro-1H-pyrrolo[2,1-c][1,4]oxazine-8-carboxylic acid [(R)-1-(5-chloro-6-methoxy-pyridin-3-yl)-propyl]-amide], the IC50 on hERG channel was more than 10 µM. The change in vivo at 0.3 mg/kg in series [1] (setting [4]) was 21%. In series [1] (setting [5]), this molecule came in with an inhibition in vivo at 0.3 mg/kg of 91%.
Consider `CC[C@@H](NC(=O)c1cc(C(=O)N2CCC[C@@H]2C)n2c1COCC2)c1ccc(C(F)(F)F)c(Cl)c1` [16c, 6-((S)-2-Methyl-pyrrolidine-1-carbonyl)-3,4-dihydro-1H-pyrrolo[2,1-c][1,4]oxazine-8-carboxylic acid [(R)-1-(3-chloro-4-trifluoromethyl-phenyl)-propyl]-amide], for which the IC50 on hERG channel is more than 10 µM. In addition, the change in vivo at 0.03 mg/kg in series [1] (0.25 h, 0.03 mg/kg i.v., bolus injection, 15 min after end of administration vs. basal value, mean of three rates (150/min, 200/min, 250/min), read-out: % Prolongation of left atrial refractory period) is 12%. At 0.03 mg/kg the inhibition in vivo in series [1] (1 h, 0.03 mg/kg i.v., bolus injection, first hour after administration vs. before) was 65%.
On to `CC[C@@H](NC(=O)c1cc(C(=O)N2CCC[C@@H]2C)n2c1COCC2)c1ccc(Cl)c(Cl)c1` [16ci, 6-((S)-2-Methyl-pyrrolidine-1-carbonyl)-3,4-dihydro-1H-pyrrolo[2,1-c][1,4]oxazine-8-carboxylic acid [(R)-1-(3,4-dichloro-phenyl)-propyl]-amide], for which the half-maximal inhibitory concentration (IC50) on hERG channel is approximately 10 µM.
`CC[C@@H](NC(=O)c1cc(C(=O)N2CCC[C@@H]2C)n2c1COCC2)c1ccc(C#N)c(Cl)c1` [16d, 6-((S)-2-Methyl-pyrrolidine-1-carbonyl)-3,4-dihydro-1H-pyrrolo[2,1-c][1,4]oxazine-8-carboxylic acid [(R)-1-(3-chloro-4-cyano-phenyl)-propyl]-amide]: the IC50 at hERG channel was more than 10 µM. Also, the change in vivo at 0.3 mg/kg in series [1] (setting [4]) was found to be 24%. In series [1] (setting [5]), this molecule yielded an inhibition in vivo at 0.3 mg/kg of 100%.
As to `CC[C@@H](NC(=O)c1cc(C(=O)N2CCC[C@@H]2C)n2c1COCC2)c1ccc(C(F)(F)F)nc1` [16e, 6-((S)-2-methyl-pyrrolidine-1-carbonyl)-3,4-dihydro-1H-pyrrolo[2,1-c][1,4]oxazine-8-carboxylic acid [(R)-1-(6-trifluoromethyl-pyridin-3-yl)-propyl]-amide], the IC50 on hERG channel is more than 10 µM. Moreover, in series [1] (setting [2]), at 0.3 mg/kg the inhibition in vivo was 84%. Moreover, the change in vivo at 0.3 mg/kg in series [1] (setting [3]) was 38%.
Regarding `CC[C@@H](NC(=O)c1cc(C(=O)N[C@H](C)c2ccc(F)cc2)n2c1COCC2)c1ccc(C(F)(F)F)cc1` [16eb, 3,4-Dihydro-1H-pyrrolo[2,1-c][1,4]oxazine-6,8-dicarboxylic acid 6-{[(R)-1-(4-fluoro-phenyl)-ethyl]-amide} 8-{[(R)-1-(4-trifluoromethyl-phenyl)-propyl]-amide}], the half-maximal inhibitory concentration (IC50) on hERG channel is more than 1 µM.
For the molecule `CC[C@@H](NC(=O)c1cc(C(=O)N2CCC[C@@H]2C)n2c1COCC2)c1ccc(C(F)(F)F)cc1` [16f, 6-((S)-2-Methyl-pyrrolidine-1-carbonyl)-3,4-dihydro-1H-pyrrolo[2,1-c][1,4]oxazine-8-carboxylic acid [(R)-1-(4-trifluoromethyl-phenyl)-propyl]-amide], in series [1] (0.25 h, 1.0 mg/kg i.v., bolus injection, 15 min after end of administration vs. basal value, mean of three rates (150/min, 200/min, 250/min), read-out: % Prolongation of left atrial refractory period), the change in vivo at 1 mg/kg was found to be 19%. The molecule also displayed an inhibition in vivo at 1 mg/kg in series [1] (1 h, 1.0 mg/kg i.v., bolus injection, first hour after administration vs. before) of 73%.
Consider `CC[C@@H](NC(=O)c1cc(C(=O)N[C@H](C)c2ccc(F)cc2)n2c1COCC2)c1ccc(C(F)(F)F)nc1` [16g, 3,4-Dihydro-1H-pyrrolo[2,1-c][1,4]oxazine-6,8-dicarboxylic acid 6-{[(R)-1-(4-fluorophenyl)-ethyl]-amide}8-{[(R)-1-(6-trifluoromethyl-pyridin-3-yl)-propyl]-amide}], for which the 50% inhibitory concentration (IC50) on hERG channel was more than 10 µM.
As for `CC[C@@H](NC(=O)c1cc(C(=O)N[C@H](CC)c2ccccc2)n2c1COCC2)c1ccccc1` [16i, 3,4-Dihydro-1H-pyrrolo[2,1-c][1,4]oxazine-6,8-dicarboxylic acid bis-[((R)-1-phenylpropyl)-amide]], in the series on upper airway (10 µg/kg intravenous bolus injection), the “Time of inhibition of collapsibility (at -150 mbar)” value (“Time of inhibition … (at -150 mbar)” below) is listed as “for 90 min”. Also, the 50% inhibitory concentration (IC50) on hERG channel was more than 10 µM.
On to `CC[C@@H](NC(=O)c1cc(C(=O)N[C@H](CC)c2ccc(OC)nc2)n2c1COCC2)c1ccccc1` [16j, 3,4-Dihydro-1H-pyrrolo[2,1-c][1,4]oxazine-6,8-dicarboxylic acid 6-{[(R)-1-(6-methoxy-pyridin-3-yl)-propyl]-amide}8-[((R)-1-phenyl-propyl)-amide]], for which the “Time of inhibition … (at -150 mbar)” value in the series on upper airway (setting [6]) is listed as “for 120 min”. Besides, the IC50 on hERG channel is more than 10 µM.
On to `CCOC(=O)CNC(=O)c1cc(C(=O)N[C@H](CC)c2ccccc2)c2n1CCOC2` [16k, {[8-((R)-1-Phenyl-propylcarbamoyl)-3,4-dihydro-1H-pyrrolo[2,1-c][1,4]oxazine-6-carbonyl]-amino}-acetic acid ethyl ester], for which, in the series on upper airway (setting [6]), the “Time of inhibition … (at -150 mbar)” value is recorded as “for >240 min”. Besides, the concentration for half-maximal inhibition (IC50) on hERG channel is more than 10 µM.
As for `CC[C@@H](NC(=O)c1cc(C(=O)N2CCC[C@@H]2C(F)(F)F)n2c1COCC2)c1ccc(C(F)(F)F)nc1` [16o, 6-((R)-2-Trifluoromethyl-pyrrolidine-1-carbonyl)-3,4-dihydro-1H-pyrrolo[2,1-c][1,4]oxazine-8-carboxylic acid [(R)-1-(6-trifluoromethyl-pyridin-3-yl)-propyl]-amide], the change in vivo at 0.3 mg/kg in series [1] (setting [4]) is 45%. Also, 0.3 mg/kg produced 71% inhibition in vivo in series [1] (setting [5]).
